{"source": "patent US20250230511A1", "about": "“METHODS AND REAGENTS FOR […] VECTOR NUCLEIC ACID PRODUCTS” (Sana Biotechnology, Inc., priority 2021, published 2025)", "key": {"[1]": {"test_system": "VSV-G pseudotyped lentiviral vector (VG)", "assay_type": "cell-based"}, "[2]": {"test_system": "VSV-G pseudotyped lentiviral vector (VG)", "assay_type": "cell-based", "remark": "listed apart in the source"}}, "data": [{"smiles": "Cc1ccnc2c1NC(=O)c1cccnc1N2C1CC1", "note": "[Nevirapine]", "values": [{"measurement": "determination of VCN based on assay of the WPRE amplicon", "setting": "[1]", "value": "not substantially impacted"}, {"measurement": "determination of VCN based on assay of the DelU3 amplicon", "setting": "[2]", "value": "completely ablated"}]}]}
